# Assay results published in patent publication US7202267B2, “Acyloxypyrrolidine derivatives, preparation thereof and application thereof in therapeutic” (Sanofi-aventis, priority 2002, dated 2007).
# How the values were obtained:
# [1] = molecular target: T1, human V1a receptors (Homo sapiens, UniProt P37288); assay: Displacement of [3H]-AVP binding to human V1a receptors; conditions: cellular or membrane preparations
# T1 construct: host or cells: cellular or membrane preparations
# Experimental: The affinity of the compounds of formula (I) according to the invention, for V1a receptors for arginine-vasopressin, was determined in vitro using the method described by M. THIBONNIER et al., J. Biol. Chem., 1994, 269, 3304–3310. This method consists in studying, in vitro, the displacement of […] arginine-vasopressin ([^3H]-AVP) to V1a receptors present on cellular or membrane preparations bearing rat or human V1a receptors.
# [2] = molecular target: T2, human V1b receptors (Homo sapiens, UniProt P47901); assay: Displacement of [3H]-AVP binding to human V1b receptors; conditions: cellular or adenohypophyseal membrane preparations
# T2 construct: host or cells: cellular or adenohypophyseal membrane preparations
# T2 sequence (P47901 1-424): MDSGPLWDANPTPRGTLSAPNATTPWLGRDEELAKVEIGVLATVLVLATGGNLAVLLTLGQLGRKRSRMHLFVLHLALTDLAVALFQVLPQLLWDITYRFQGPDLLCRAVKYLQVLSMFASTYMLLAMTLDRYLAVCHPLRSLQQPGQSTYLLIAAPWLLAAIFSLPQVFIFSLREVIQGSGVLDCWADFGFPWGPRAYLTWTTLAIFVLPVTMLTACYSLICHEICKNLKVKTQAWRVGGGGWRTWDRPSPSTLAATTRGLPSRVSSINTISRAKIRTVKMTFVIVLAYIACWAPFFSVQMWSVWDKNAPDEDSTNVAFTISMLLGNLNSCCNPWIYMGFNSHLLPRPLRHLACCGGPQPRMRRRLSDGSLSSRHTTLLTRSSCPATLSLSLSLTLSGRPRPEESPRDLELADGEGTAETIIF
# Experimental: The affinity of the compounds of formula (I) according to the invention, for V1b receptors for arginine-vasopressin, was determined in vitro using the method described by Y. DE KEYSER et al., Febs Letters, 1994, 356, 215–220. This method consists in studying, in vitro, the displacement of […] arginine-vasopressin ([^3H]-AVP) to V1b receptors present on cellular or adenohypophyseal membrane preparations bearing rat or human V1b receptors.
# T1 sequence (P37288 whole entry): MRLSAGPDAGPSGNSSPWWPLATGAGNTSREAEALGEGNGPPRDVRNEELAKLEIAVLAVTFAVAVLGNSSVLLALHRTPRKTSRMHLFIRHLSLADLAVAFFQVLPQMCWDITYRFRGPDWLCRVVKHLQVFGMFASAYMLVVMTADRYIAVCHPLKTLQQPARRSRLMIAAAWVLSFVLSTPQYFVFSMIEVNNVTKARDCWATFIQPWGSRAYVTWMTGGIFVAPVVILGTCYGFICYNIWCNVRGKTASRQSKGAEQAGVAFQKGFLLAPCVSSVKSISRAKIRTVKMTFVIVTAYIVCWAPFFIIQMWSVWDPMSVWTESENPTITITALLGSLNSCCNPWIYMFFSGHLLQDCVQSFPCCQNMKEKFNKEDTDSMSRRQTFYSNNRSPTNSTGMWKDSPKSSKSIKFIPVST
smiles,measurement,setting,value
"COc1ccc(S(=O)(=O)N2C(=O)[C@@](c3ccccc3OC)(N3C[C@H](OC(C)=O)C[C@H]3C(=O)N(C)C)c3cc(Cl)ccc32)c(OC)c1 [Example 1, (3R,5S)-1-[(3R)-5-chloro-1-[(2,4-dimethoxyphenyl)sulfonyl]-3-(2-methoxyphenyl)-2-oxo-2,3-dihydro-1H-indol-3-yl]-5-[(dimethylamino)carbonyl]-3-pyrrolidinyl acetate]",IC50,[1],84 nM
same,IC50,[2],3.4 nM
